Source: PubChem BioAssay (NCI)
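Protocol summary: plate cells (96-well), add compound at 5 concentrations, incubate 48 h, interpolate endpoints linearly. The concentration for 50% growth inhibition is given as GI50. TGI denotes the concentration required for complete inhibition of growth.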

Key:
Test in all cases: DTP human tumour cell line panel, 48 h
A498 renal = tested on: A498 renal
EKVX NSCLC = tested on: EKVX NSCLC
HOP-62 NSCLC = tested on: HOP-62 NSCLC
HOP-92 NSCLC = tested on: HOP-92 NSCLC
M14 melanoma = tested on: M14 melanoma
OVCAR-3 ovarian = tested on: OVCAR-3 ovarian
UACC-62 melanoma = tested on: UACC-62 melanoma
BT-549 breast = tested on: BT-549 breast
PC-3 prostate = tested on: PC-3 prostate
MCF7 breast = tested on: MCF7 breast

Molecule | TGI (A498 renal) [µM] | TGI (EKVX NSCLC) [µM] | TGI (HOP-62 NSCLC) [µM] | TGI (HOP-92 NSCLC) [µM] | TGI (M14 melanoma) [µM] | TGI (OVCAR-3 ovarian) [µM] | TGI (UACC-62 melanoma) [µM] | TGI (BT-549 breast) [µM] | TGI (PC-3 prostate) [µM] | TGI (MCF7 breast) [µM] | GI50 (BT-549 breast) [µM] | GI50 (EKVX NSCLC) [µM] | GI50 (HOP-62 NSCLC) [µM] | GI50 (HOP-92 NSCLC) [µM] | GI50 (M14 melanoma) [µM] | GI50 (OVCAR-3 ovarian) [µM] | GI50 (PC-3 prostate) [µM] | GI50 (UACC-62 melanoma) [µM] | GI50 (A498 renal) [µM]
CC(C)[Si](OCC1CC(C#N)OC(C)(C)O1)(C(C)C)C(C)C (configuration not stated) | 19.1 | 66 | 44.3 | 57.2 | 48.4 | 29.4 | > 100 | – | – | – | – | – | – | – | – | – | – | – | –
O=C(/C=C/c1ccccc1)CCC1C(=O)NC(=S)NC1=O | > 100 | – | – | > 100 | > 100 | > 100 | > 100 | > 100 | > 100 | – | – | – | – | – | – | – | – | – | –
COc1ccc(NC(=O)C2C(=O)N(c3ccc(OC)cc3)C(=O)/C2=N\NC(N)=O)cc1 (configuration not stated) | 45 | > 100 | 32.9 | 84.9 | > 100 | > 100 | 46.7 | – | – | – | – | – | – | – | – | – | – | – | –
COc1ccc(C)cc1C1CCC(=O)O1 (configuration not stated) | > 100 | > 100 | > 100 | – | > 100 | > 100 | > 100 | – | – | – | – | – | – | – | – | – | – | – | –
CCc1cc(Cc2ccc(C)c(NC(=O)C(=O)C3C(=O)NC(=O)NC3=O)c2CC)cc(C)c1NC(=O)C(=O)C1C(=O)NC(=O)NC1=O | > 100 | > 100 | > 100 | – | > 100 | > 100 | > 100 | – | – | – | – | – | – | – | – | – | – | – | –
O=C(Cc1ccccc1)NN1C(=O)/C(=C\c2ccccc2O)SC1=Nc1ccccc1 | > 100 | > 100 | > 100 | > 100 | > 100 | > 100 | > 100 | > 100 | – | > 100 | – | – | – | – | – | – | – | – | –
O=C1CCC(=O)c2sccc2N1 | > 100 | > 100 | > 100 | > 100 | > 100 | > 100 | – | – | – | – | – | – | – | – | – | – | – | – | –
CC(C)(C)Sc1nnc(SC(C)(C)C)c2c(=O)[nH]nc(SC(C)(C)C)c12 | 27.1 | 24.6 | 27 | 14.1 | 28.9 | 22.6 | 22.2 | – | – | – | – | – | – | – | – | – | – | – | –
CC(=O)Nc1ccc(-c2nnc(SCC(=O)Nc3ccc(Cl)cc3)o2)cc1 | 31.7 | 38.4 | 39.7 | – | 34.1 | 31.1 | 20.2 | – | – | – | – | – | – | – | – | – | – | – | –
CC(C)N1C(C)[C@@H](c2ccccc2)O[P@]1(=O)CC1=CCCCC1 (some centres not stated) | > 100 | > 100 | > 100 | 99.6 | > 100 | > 100 | > 100 | – | – | – | – | – | – | – | – | – | – | – | –
H-QIYKKYRTWYRKAWKVLGKV-NH2 | – | 11.7 | > 100 | 4.81 | 14.1 | 22.3 | 4.74 | 27.2 | 20 | – | 5.36 | 3.04 | 5.15 | 1.95 | 3.06 | 4.3 | 3.82 | 2.08 | –
S=c1c2ccccc2c(=S)n2n1CC=CC2 | > 100 | > 100 | – | > 100 | > 100 | > 100 | > 100 | – | – | – | – | – | – | – | – | – | – | – | –
COC(=O)C(=O)C(C(=O)C(=O)Nc1cc(Cl)c(Cl)cc1Cl)c1nc2ccc([N+](=O)[O-])cc2[nH]c1=O (configuration not stated) | – | > 100 | – | – | > 100 | – | > 100 | – | – | – | – | – | – | – | – | – | – | – | –
O=c1c2ccccc2nc(-c2ccccc2)n1NC(=S)Nc1cccc(Cl)c1 | > 100 | – | > 100 | 94.5 | > 100 | – | > 100 | – | – | – | – | – | – | – | – | – | – | – | –
C/C(CC(=O)Nc1cccc([N+](=O)[O-])c1)=N\NC(=O)CC#N | – | > 100 | > 100 | > 100 | > 100 | > 100 | > 100 | – | – | – | – | – | – | – | – | – | – | – | –
O=CCCCC(Sc1ccccc1)Sc1ccccc1 | > 100 | > 100 | > 100 | – | 51.3 | 68 | 24.5 | – | – | – | – | – | – | – | – | – | – | – | –
C#CCOCn1cnc2ncnc(N)c21 | > 100 | > 100 | > 100 | > 100 | – | > 100 | > 100 | – | – | – | – | – | – | – | – | – | – | – | –
COc1ccc2c([nH]c3c(O)c(-c4c(C)cc5c([nH]c6c(CC=C(C)C)c(OC)ccc65)c4O)c(C)cc32)c1CC=C(C)C | > 100 | – | > 100 | > 100 | > 100 | > 100 | > 100 | – | – | – | – | – | – | – | – | – | – | – | –
CCOC(=O)CC(NC(=O)c1ccc(N=NN(C)C)cc1)C(=O)OCC (configuration not stated) | > 100 | > 100 | > 100 | – | > 100 | > 100 | > 100 | – | – | – | – | – | – | – | – | – | – | – | –
CC(=O)[C-](C(C)=O)c1ccccc1.CC(=O)[C-](C(C)=O)c1ccccc1.CC(=O)[C-](C(C)=O)c1ccccc1.[Cl-].[Zr+4] | > 100 | > 100 | > 100 | > 100 | > 100 | > 100 | > 100 | – | – | – | – | > 100 | > 100 | 44.5 | > 100 | > 100 | – | > 100 | > 100
CC(=O)c1c2c(cc3c1CC1(C3)Cc3cc4c(c(C(=O)O)c3C1)CCC4)CCC2 (configuration not stated) | – | – | > 100 | 81.2 | > 100 | 47.2 | 78.7 | – | – | – | – | – | – | – | – | – | – | – | –
